Where no end group is shown, it is not given here.
Experiments:
Assay in all cases: Histone peptide microarray
Assay type in all cases: binding, human
PHF13 = settings: PHF13, GST-tagged; arrays performed twice, n of 4
Outline: (§1)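 Mean ± SD of 4 replicate array intensities; GST-PHD finger at 0.5 μM against 293 PTM-bearing histone peptides.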

DPF2 (PPC2W2) = settings: DPF2 (PPC2W2), GST-tagged; arrays performed twice, n of 4
Outline: as §1

MLL5 = settings: MLL5, GST-tagged; arrays performed twice, n of 4
Outline: as §1

TAF3 = settings: TAF3, GST-tagged; arrays performed twice, n of 4
Outline: as §1

BAZ2B = settings: BAZ2B, GST-tagged; arrays performed twice, n of 4
Outline: as §1

RAG2 = settings: RAG2, GST-tagged; arrays performed twice, n of 4
Outline: as §1

PHF23 = settings: PHF23, GST-tagged; arrays performed twice, n of 4
Outline: as §1

DIDO1 = settings: DIDO1, GST-tagged; arrays performed twice, n of 4
Outline: as §1

KDM7A = settings: KDM7A, GST-tagged; arrays performed twice, n of 4
Outline: as §1

BPTF (PB) = settings: BPTF (PB), GST-tagged; arrays performed twice, n of 4
Outline: as §1

ING2 = settings: ING2, GST-tagged; arrays performed twice, n of 4
Outline: as §1

MORC3 (CW) = settings: MORC3 (CW), GST-tagged; arrays performed twice, n of 4
Outline: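 GST-tagged PHD finger readers were expressed, purified and applied at 0.5 μM to a microarray of 293 synthetic histone peptides carrying single or combinatorial PTMs, using an optimized protocol. Binding signals are averages with standard deviation from 4 replicates.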

ING1 = settings: ING1, GST-tagged; arrays performed twice, n of 4
Outline: as §1

AIRE (PP) = settings: AIRE (PP), GST-tagged; arrays performed twice, n of 4
Outline: as §1

TRIM66 (PB) = settings: TRIM66 (PB), GST-tagged; arrays performed twice, n of 4
Outline: as §1

CHD5 (PCC) = settings: CHD5 (PCC), GST-tagged; arrays performed twice, n of 4
Outline: as §1

ING5 = settings: ING5, GST-tagged; arrays performed twice, n of 4
Outline: as §1

PHF2 = settings: PHF2, GST-tagged; arrays performed twice, n of 4
Outline: as §1

SP140L = settings: SP140L, GST-tagged; arrays performed twice, n of 4
Outline: as §1

ING3 = settings: ING3, GST-tagged; arrays performed twice, n of 4
Outline: as §1

PHRF1 (RP) = settings: PHRF1 (RP), GST-tagged; arrays performed twice, n of 4
Outline: as §1

KDM4C (TTP) = settings: KDM4C (TTP), GST-tagged; arrays performed twice, n of 4
Outline: as §1

KDM5A (1) = settings: KDM5A (1), GST-tagged; arrays performed twice, n of 4
Outline: as §1

KDM5B (1) = settings: KDM5B (1), GST-tagged; arrays performed twice, n of 4
Outline: as §1

CHD5 (PPCC) = settings: CHD5 (PPCC), GST-tagged; arrays performed twice, n of 4
Outline: as §1

KDM5B (3) = settings: KDM5B (3), GST-tagged; arrays performed twice, n of 4
Outline: as §1

CHD4 (PPCC) = settings: CHD4 (PPCC), GST-tagged; arrays performed twice, n of 4
Outline: as §1

PHF8 = settings: PHF8, GST-tagged; arrays performed twice, n of 4
Outline: as §1

KDM5A (3) = settings: KDM5A (3), GST-tagged; arrays performed twice, n of 4
Outline: as §1

ING4 = settings: ING4, GST-tagged; arrays performed twice, n of 4
Outline: as §1

PHF21A = settings: PHF21A, GST-tagged; arrays performed twice, n of 4
Outline: as §1

Array Heatmap value (peptide array binding signal) (PHF13)	Array Heatmap value (peptide array binding signal) (DPF2 (PPC2W2))	Array Heatmap value (peptide array binding signal) (MLL5)	Array Heatmap value (peptide array binding signal) (TAF3)	Array Heatmap value (peptide array binding signal) (BAZ2B)	Array Heatmap value (peptide array binding signal) (RAG2)	Array Heatmap value (peptide array binding signal) (PHF23)	Array Heatmap value (peptide array binding signal) (DIDO1)	Array Heatmap value (peptide array binding signal) (KDM7A)	Array Heatmap value (peptide array binding signal) (BPTF (PB))	Array Heatmap value (peptide array binding signal) (ING2)	Array Heatmap value (peptide array binding signal) (MORC3 (CW))	Array Heatmap value (peptide array binding signal) (ING1)	Array Heatmap value (peptide array binding signal) (AIRE (PP))	Array Heatmap value (peptide array binding signal) (TRIM66 (PB))	Array Heatmap value (peptide array binding signal) (CHD5 (PCC))	Array Heatmap value (peptide array binding signal) (ING5)	Array Heatmap value (peptide array binding signal) (PHF2)	Array Heatmap value (peptide array binding signal) (SP140L)	Array Heatmap value (peptide array binding signal) (ING3)	Substance	also measured
0.611	0.6849	0.5826	0.2598	0.4631	0.2487	0.5714	0.7417	0.3252	0.3429	0.6036	0.3596	0.553	0.4232	0.6047	0.8241	0.347	0.578	0.3381	0.4727	H4K12ac + KQ5,8,16,20: H4 1-23 (SGRGQGGQGLGK(Ac)GGAQRHRQVLR; UniProt P62805 2-24, looked up, variant K5Q K8Q K16Q K20Q)	Array Heatmap value (peptide array binding signal) (PHRF1 (RP)): 0.4941; Array Heatmap value (peptide array binding signal) (KDM4C (TTP)): 0.445; Array Heatmap value (peptide array binding signal) (KDM5A (1)): 0.4416; Array Heatmap value (peptide array binding signal) (KDM5B (1)): 0.6598; Array Heatmap value (peptide array binding signal) (CHD5 (PPCC)): 0.5319; Array Heatmap value (peptide array binding signal) (KDM5B (3)): 0.4684; Array Heatmap value (peptide array binding signal) (CHD4 (PPCC)): 0.5868; Array Heatmap value (peptide array binding signal) (PHF8): 0.3437; Array Heatmap value (peptide array binding signal) (KDM5A (3)): 0.4384; Array Heatmap value (peptide array binding signal) (ING4): 0.4387; Array Heatmap value (peptide array binding signal) (PHF21A): 0.4355
0.5207	0.6545	0.4865	0.2302	0.3991	0.2114	0.4708	0.5928	0.3046	0.2963	0.5919	0.309	0.4711	0.4018	0.515	0.7543	0.2899	0.4095	0.3238	0.3932	H4K12me1: H4 1-23 [Peptide H4K12me1]	Array Heatmap value (peptide array binding signal) (PHRF1 (RP)): 0.3919; Array Heatmap value (peptide array binding signal) (KDM4C (TTP)): 0.4116; Array Heatmap value (peptide array binding signal) (KDM5A (1)): 0.4194; Array Heatmap value (peptide array binding signal) (KDM5B (1)): 0.6336; Array Heatmap value (peptide array binding signal) (CHD5 (PPCC)): 0.4573; Array Heatmap value (peptide array binding signal) (KDM5B (3)): 0.384; Array Heatmap value (peptide array binding signal) (CHD4 (PPCC)): 0.5189; Array Heatmap value (peptide array binding signal) (PHF8): 0.3037; Array Heatmap value (peptide array binding signal) (KDM5A (3)): 0.3966; Array Heatmap value (peptide array binding signal) (ING4): 0.3881; Array Heatmap value (peptide array binding signal) (PHF21A): 0.4184
0.5544	0.5691	0.5228	0.2578	0.4009	0.2177	0.4966	0.5747	0.3276	0.3137	0.5829	0.3311	0.4651	0.423	0.5321	0.7369	0.3047	0.4522	0.3288	0.4032	H4K20ac: H4 1-23 [Peptide H4K20ac]	Array Heatmap value (peptide array binding signal) (PHRF1 (RP)): 0.3806; Array Heatmap value (peptide array binding signal) (KDM4C (TTP)): 0.4301; Array Heatmap value (peptide array binding signal) (KDM5A (1)): 0.4202; Array Heatmap value (peptide array binding signal) (KDM5B (1)): 0.6134; Array Heatmap value (peptide array binding signal) (CHD5 (PPCC)): 0.4774; Array Heatmap value (peptide array binding signal) (KDM5B (3)): 0.5071; Array Heatmap value (peptide array binding signal) (CHD4 (PPCC)): 0.5173; Array Heatmap value (peptide array binding signal) (PHF8): 0.3218; Array Heatmap value (peptide array binding signal) (KDM5A (3)): 0.374; Array Heatmap value (peptide array binding signal) (ING4): 0.4009; Array Heatmap value (peptide array binding signal) (PHF21A): 0.3977
